From patent US11407736B2 (priority 2019, dated 2022)
Where a name gives a salt, the structure may show the parent alone. Read-outs that look alike come from different tables or passages of the source.

Legend:
U937 cells = experiment: U937 cell necroptosis assay (TNFa + zVAD, CellTiter-Glo); type: cell-based, human; details: Homo sapiens
Procedure, shortened: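 Human U937 and murine L929 cells in RPMI 1640/10% FBS were pre-incubated 1 h at 37 °C with serially diluted compound plus zVAD-fmk (U937 plated with 60 uM, L929 medium with 40 uM), then stimulated with 2 ng/mL TNFa (final). Viability read by CellTiter-Glo luminescence after 18 h.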

L929 cells = experiment: L929 cell necroptosis assay (TNFa + zVAD, CellTiter-Glo); type: cell-based, murine; details: Mus musculus
Procedure, shortened: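 Murine L929 cells, plated 18 h beforehand at 10K cells/well in RPMI 1640 with 10% FBS, were switched to medium containing 40 uM zVAD-fmk and given compound from 4-fold serial dilutions. Viability after 18 h of TNFa stimulation at 37° C was read by CellTiter-Glo luminescence.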

RIPK1 = RIPK1 (Homo sapiens (Human), UniProt Q13546); experiment: RIPK1 ADP-Glo biochemical kinase assay
RIPK1, sequence (Q13546 whole entry, species assumed): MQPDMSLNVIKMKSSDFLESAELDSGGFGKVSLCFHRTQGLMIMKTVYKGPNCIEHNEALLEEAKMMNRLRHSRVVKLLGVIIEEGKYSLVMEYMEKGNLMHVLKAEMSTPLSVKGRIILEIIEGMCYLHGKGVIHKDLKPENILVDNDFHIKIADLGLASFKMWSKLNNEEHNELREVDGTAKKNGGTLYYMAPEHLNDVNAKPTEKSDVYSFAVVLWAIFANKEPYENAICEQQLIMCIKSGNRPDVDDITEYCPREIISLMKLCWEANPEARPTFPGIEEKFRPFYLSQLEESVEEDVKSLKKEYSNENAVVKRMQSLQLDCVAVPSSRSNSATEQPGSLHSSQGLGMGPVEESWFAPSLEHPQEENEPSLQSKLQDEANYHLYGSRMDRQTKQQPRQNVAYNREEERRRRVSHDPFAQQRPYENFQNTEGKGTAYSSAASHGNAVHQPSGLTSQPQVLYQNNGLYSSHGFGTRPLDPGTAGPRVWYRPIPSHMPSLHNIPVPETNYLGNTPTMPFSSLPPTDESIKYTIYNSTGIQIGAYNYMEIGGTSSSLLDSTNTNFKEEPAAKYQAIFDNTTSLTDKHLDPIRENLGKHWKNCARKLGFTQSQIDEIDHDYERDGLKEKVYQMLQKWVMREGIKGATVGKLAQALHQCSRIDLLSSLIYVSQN
Procedure: The final reaction volume was 5.0ul.
Adding 5 μl of ADP-Glo™ terminated the reaction.

[1] = U-937, U937 cells, TNFa + zVAD, read-out: U937 Zvad TNF CTG Recovery, U937, TNFa + zVAD (IC50)
[2] = read-out: RIPK1 ADP-Glo Kinase (IC50)
[3] = U-937, read-out: U937 Zvad TNF CTG Recovery, U937, TNFa + zVAD (IC50), U937 cells, TNFa + zVAD
[4] = L929, read-out: L929-CTG-recovery, L929, TNFa + zVAD (IC50), L929 cells, TNFa + zVAD
[5] = L929, L929 cells, TNFa + zVAD, read-out: L929-CTG-recovery, L929, TNFa + zVAD (IC50)

SMILES | IC50 (U937 cells; [1]) [nM] | IC50 (L929 cells; L929 cells, TNFa + zVAD, read-out: L929-CTG-recovery, L929, TNFa + zVAD (IC50)) [nM] | IC50 (RIPK1; [2]) [nM] | IC50 (U937 cells; [3]) [nM] | IC50 (L929 cells; [4]) [nM] | IC50 (L929 cells; [5]) [nM] | IC50 (RIPK1) [nM]
C[C@H](N)C(=O)OC1(C#Cc2ccc3c(c2)N(C)C(=O)[C@@H](NC(=O)c2cc(Oc4ccccc4)ccn2)CO3)COC1 [Compound I-194, 3-(((S)-5-methyl-4-oxo-3-(4-phenoxypicolinamido)-2,3,4,5-tetrahydrobenzo[b][1,4]oxazepin-7-yl)ethynyl)oxetan-3-yl L-alaninate trifluoroacetic acid salt] | 0.6 | 32.5 | 18.6 | – | – | – | –
CC(C)N1CC(O)(C#Cc2ccc3c(c2)N(C)C(=O)[C@@H](NC(=O)c2cc(Oc4ccccc4)ccn2)CO3)C1 [Compound I-195, (S)—N-(7-((3-hydroxy-1-isopropylazetidin-3-yl)ethynyl)-5-methyl-4-oxo-2,3,4,5-tetrahydrobenzo[b][1,4]oxazepin-3-yl)-4-phenoxypicolinamide] | – | – | 15.3 | 1.1 | 268 | – | –
CN1C(=O)[C@@H](NC(=O)c2cc(Oc3ccccc3)ccn2)COc2ccc(C#Cc3cn(C)cn3)cc21 [Compound I-203, (S)—N-(5-methyl-7-((1-methyl-1H-imidazol-4-yl)ethynyl)-4-oxo-2,3,4,5-tetrahydrobenzo[b][1,4]oxazepin-3-yl)-4-phenoxypicolinamide] | 0.4 | – | 23.4 | – | – | 4 | –
CN1C(=O)[C@@H](NC(=O)c2cc(Oc3ccccc3)ccn2)COc2ccc(C#CC(C)(C)N3CCOCC3)cc21 [Compound I-206, (S)—N-(5-Methyl-7-(3-methyl-3-morpholinobut-1-yn-1-yl)-4-oxo-2,3,4,5-tetrahydrobenzo[b][1,4]oxazepin-3-yl)-4-phenoxypicolinamide] | 0.6 | – | – | – | – | 41.5 | 55.6
CN1C(=O)[C@@H](NC(=O)c2cc(Oc3ccccc3)ccn2)COc2ccc(C#CC3(O)CCS(=O)(=O)CC3)cc21 [Compound I-207, (S)—N-(7-((4-Hydroxy-1,1-dioxidotetrahydro-2H-thiopyran-4-yl)ethynyl)-5-methyl-4-oxo-2,3,4,5-tetrahydrobenzo[b][1,4]oxazepin-3-yl)-4-phenoxypicolinamide] | 0.5 | – | 27.9 | – | – | 116 | –
CN1C(=O)[C@@H](NC(=O)c2cc(Oc3ccccc3)ccn2)COc2ccc(C#CC3(O)C[S+]([O-])C3)cc21 (stereo partly drawn) [Compound I-208, (S)—N-(7-((3-Hydroxy-1-oxidothietan-3-yl)ethynyl)-5-methyl-4-oxo-2,3,4,5-tetrahydrobenzo[b][1,4]oxazepin-3-yl)-4-phenoxypicolinamide] | 0.6 | – | 17.2 | – | – | 97.5 | –
CN1C(=O)[C@@H](NC(=O)c2cc(Oc3ccccc3)ccn2)COc2ccc(C#CC(C)(C)N3CCCC3)cc21 [Compound I-210, (S)—N-(5-Methyl-7-(3-methyl-3-(pyrrolidin-1-yl)but-1-yn-1-yl)-4-oxo-2,3,4,5-tetrahydrobenzo[b][1,4]oxazepin-3-yl)-4-phenoxypicolinamide] | 4.2 | – | 28.6 | – | – | 470 | –
CN1C(=O)[C@@H](NC(=O)n2cc(Cc3ccccc3)cn2)COc2ccc(C#CC(C)(C)C)cc21 [Compound I-212, (S)-4-Benzyl-N-(7-(3,3-dimethylbut-1-yn-1-yl)-5-methyl-4-oxo-2,3,4,5-tetrahydrobenzo[b][1,4]oxazepin-3-yl)-1H-pyrazole-1-carboxamide] | 4.3 | – | 154 | – | – | 267 | –
CN1C(=O)[C@@H](NC(=O)n2cc(Cc3ccccc3)cn2)COc2ccc(C#CC(C)(C)O)cc21 [Compound I-213, (S)-4-Benzyl-N-(7-(3-hydroxy-3-methylbut-1-yn-1-yl)-5-methyl-4-oxo-2,3,4,5-tetrahydrobenzo[b][1,4]oxazepin-3-yl)-1H-pyrazole-1-carboxamide] | 1 | – | 35.2 | – | – | 45.5 | –
CN1C(=O)[C@@H](NC(=O)n2cc(Cc3ccccc3)cn2)COc2ccc(C#Cc3cccnc3)cc21 [Compound I-214, (S)-4-Benzyl-N-(5-methyl-4-oxo-7-(pyridin-3-ylethynyl)-2,3,4,5-tetrahydrobenzo[b][1,4]oxazepin-3-yl)-1H-pyrazole-1-carboxamide] | 4 | – | 76.2 | – | – | 352 | –
CN1C(=O)[C@@H](NC(=O)n2cc(Cc3ccccc3)cn2)COc2ccc(C#Cc3ccccn3)cc21 [Compound I-215, (S)-4-Benzyl-N-(5-methyl-4-oxo-7-(pyridin-2-ylethynyl)-2,3,4,5-tetrahydrobenzo[b][1,4]oxazepin-3-yl)-1H-pyrazole-1-carboxamide] | 0.3 | – | 32.1 | – | – | 20.9 | –
CN1C(=O)[C@@H](NC(=O)n2cc(Cc3ccccc3)cn2)COc2ccc(C#CC3(O)COC3)cc21 [Compound I-216, (S)-4-Benzyl-N-(7-((3-hydroxyoxetan-3-yl)ethynyl)-5-methyl-4-oxo-2,3,4,5-tetrahydrobenzo[b][1,4]oxazepin-3-yl)-1H-pyrazole-1-carboxamide] | – | – | 18.8 | 0.5 | 28.5 | – | –
CN1C(=O)[C@@H](NC(=O)n2cc(Cc3ccccc3)cn2)COc2ccc(N3CC4(CCOCC4)C3)cc21 [Compound I-217, (S)-4-Benzyl-N-(5-methyl-4-oxo-7-(7-oxa-2-azaspiro[3.5]nonan-2-yl)-2,3,4,5-tetrahydrobenzo[b][1,4]oxazepin-3-yl)-1H-pyrazole-1-carboxamide] | 0.5 | – | – | – | – | 597 | 23.9
CN1C(=O)[C@@H](NC(=O)n2cc(Cc3ccc(F)cc3)cn2)COc2ccc(C#CC(C)(C)O)cc21 [Compound I-218, (S)-4-(4-fluorobenzyl)-N-(7-(3-hydroxy-3-methylbut-1-yn-1-yl)-5-methyl-4-oxo-2,3,4,5-tetrahydrobenzo[b][1,4]oxazepin-3-yl)-1H-pyrazole-1-carboxamide] | 2.6 | – | 24.5 | – | – | 75.8 | –
CN1C(=O)[C@@H](NC(=O)n2cc(Cc3ccccc3)cn2)COc2ccc(C#CC3(O)CCC3)cc21 [Compound I-219, (S)-4-Benzyl-N-(7-((1-hydroxycyclobutyl)ethynyl)-5-methyl-4-oxo-2,3,4,5-tetrahydrobenzo[b][1,4]oxazepin-3-yl)-1H-pyrazole-1-carboxamide] | 0.6 | – | 28.4 | – | – | 23.6 | –
Cc1c(Cc2ccccc2)cnn1C(=O)N[C@H]1COc2ccc(C#CC(C)(C)O)cc2N(C)C1=O [Compound I-220, (S)-4-Benzyl-N-(7-(3-hydroxy-3-methylbut-1-yn-1-yl)-5-methyl-4-oxo-2,3,4,5-tetrahydrobenzo[b][1,4]oxazepin-3-yl)-5-methyl-1H-pyrazole-1-carboxamide] | 8.9 | – | 35.5 | – | – | 1920 | –
CN1C(=O)[C@@H](NC(=O)n2cc(Cc3ccc(F)cc3)cn2)COc2ccc(C#CC3(O)CCC3)cc21 [Compound I-221, (S)-4-(4-Fluorobenzyl)-N-(7-((l-hydroxycyclobutyl)ethynyl)-5-methyl-4-oxo-2,3,4,5-tetrahydrobenzo[b][1,4]oxazepin-3-yl)-1H-pyrazole-1-carboxamide] | 2.5 | – | 39.7 | – | – | 72.2 | –
CN1C(=O)[C@@H](NC(=O)n2cc(Cc3ccc(F)cc3)cn2)COc2ccc(C#CC3(O)COC3)cc21 [Compound I-222, (S)-4-(4-Fluorobenzyl)-N-(7-((3-hydroxyoxetan-3-yl)ethynyl)-5-methyl-4-oxo-2,3,4,5-tetrahydrobenzo[b][1,4]oxazepin-3-yl)-1H-pyrazole-1-carboxamide] | 1.4 | – | 16.6 | – | – | 62.5 | –
CN1C(=O)[C@@H](NC(=O)n2ccc(Cc3ccc(F)cc3)n2)COc2ccc(C#CC3(O)CCC3)cc21 [Compound I-223, (S)-3-(4-Fluorobenzyl)-N-(7-((1-hydroxycyclobutyl)ethynyl)-5-methyl-4-oxo-2,3,4,5-tetrahydrobenzo[b][1,4]oxazepin-3-yl)-1H-pyrazole-1-carboxamide] | 627 | – | 141 | – | – | 10300 | –
CN1C(=O)[C@@H](NC(=O)n2cc(Cc3ccc(F)cc3)cn2)COc2ccc(C#CC3(O)CC4(CCC4)C3)cc21 [Compound I-224, (S)-4-(4-Fluorobenzyl)-N-(7-((2-hydroxyspiro[3.3]heptan-2-yl)ethynyl)-5-methyl-4-oxo-2,3,4,5-tetrahydrobenzo[b][1,4]oxazepin-3-yl)-1H-pyrazole-1-carboxamide] | 1.5 | – | 312 | – | – | 220 | –
CN1C(=O)[C@@H](NC(=O)n2cc(Cc3ccc(F)cc3)cn2)COc2ccc(C#CC3(O)CC4(COC4)C3)cc21 [Compound I-225, (S)-4-(4-Fluorobenzyl)-N-(7-((6-hydroxy-2-oxaspiro[3.3]heptan-6-yl)ethynyl)-5-methyl-4-oxo-2,3,4,5-tetrahydrobenzo[b][1,4]oxazepin-3-yl)-1H-pyrazole-1-carboxamide] | 0.5 | – | 22.7 | – | – | 32.5 | –
